pKi: −log10 of the molar value.
How the values were obtained:
AHK3 [1] = target: T1, AHK3 (Arabidopsis thaliana, UniProt Q9C5U1); experiment: competitive radioligand binding assay ([[…]-3H]tZ, [[…]-3H]iP) with E. coli cells expressing the receptor; assay type: cell-based
T1 construct: expressed in E. coli KMI001 (pSTV28-AHK3)
T1 sequence (Q9C5U1 1-1036): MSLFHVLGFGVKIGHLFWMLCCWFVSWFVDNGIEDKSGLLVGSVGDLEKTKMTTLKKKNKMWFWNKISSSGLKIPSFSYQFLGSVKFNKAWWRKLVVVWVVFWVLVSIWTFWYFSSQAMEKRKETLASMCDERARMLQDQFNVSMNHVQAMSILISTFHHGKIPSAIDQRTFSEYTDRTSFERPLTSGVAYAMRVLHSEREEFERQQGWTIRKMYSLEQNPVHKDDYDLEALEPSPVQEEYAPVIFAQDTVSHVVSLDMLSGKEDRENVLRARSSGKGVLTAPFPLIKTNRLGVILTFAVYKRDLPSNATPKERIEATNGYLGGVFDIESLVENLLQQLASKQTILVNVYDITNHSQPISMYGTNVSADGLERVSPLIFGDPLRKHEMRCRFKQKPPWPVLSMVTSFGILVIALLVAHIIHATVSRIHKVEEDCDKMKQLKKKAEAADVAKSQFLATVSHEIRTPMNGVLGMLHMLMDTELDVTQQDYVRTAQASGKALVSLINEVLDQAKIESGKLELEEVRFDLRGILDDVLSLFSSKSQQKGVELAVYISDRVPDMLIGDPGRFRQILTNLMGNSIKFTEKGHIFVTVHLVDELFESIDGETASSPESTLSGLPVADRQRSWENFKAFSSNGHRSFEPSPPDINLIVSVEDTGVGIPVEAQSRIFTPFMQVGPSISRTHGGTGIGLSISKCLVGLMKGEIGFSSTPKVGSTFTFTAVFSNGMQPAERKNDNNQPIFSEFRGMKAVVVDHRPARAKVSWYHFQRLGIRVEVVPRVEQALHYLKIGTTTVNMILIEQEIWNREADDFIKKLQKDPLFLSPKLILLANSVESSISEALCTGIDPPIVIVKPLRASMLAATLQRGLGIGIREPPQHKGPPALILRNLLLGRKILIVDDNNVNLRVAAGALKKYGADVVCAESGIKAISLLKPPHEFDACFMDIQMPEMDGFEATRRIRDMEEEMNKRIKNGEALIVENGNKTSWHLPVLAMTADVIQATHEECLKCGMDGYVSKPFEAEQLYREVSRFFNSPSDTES

[2] = target: T2, AtCKX2 (CYTOKININ OXIDASE/DEHYDROGENASE) (Arabidopsis thaliana, UniProt Q9FUJ3); experiment: in vitro enzymatic reaction with AtCKX2 (kcat, Vmax/Km); assay type: biochemical
T2 construct: gene CKX2
T2 sequence (Q9FUJ3 23-501): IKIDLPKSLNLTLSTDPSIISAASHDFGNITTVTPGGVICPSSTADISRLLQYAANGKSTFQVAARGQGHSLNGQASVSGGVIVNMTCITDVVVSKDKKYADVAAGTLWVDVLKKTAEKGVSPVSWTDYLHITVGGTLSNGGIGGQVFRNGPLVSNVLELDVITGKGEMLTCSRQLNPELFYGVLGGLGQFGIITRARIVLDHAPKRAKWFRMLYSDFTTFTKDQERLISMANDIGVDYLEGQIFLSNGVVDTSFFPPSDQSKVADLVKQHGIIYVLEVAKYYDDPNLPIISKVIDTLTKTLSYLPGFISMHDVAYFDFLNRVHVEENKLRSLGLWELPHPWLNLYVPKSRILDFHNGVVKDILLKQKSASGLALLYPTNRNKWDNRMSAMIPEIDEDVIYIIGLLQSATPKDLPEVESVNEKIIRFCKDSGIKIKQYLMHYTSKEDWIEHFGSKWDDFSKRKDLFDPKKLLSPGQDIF

[3] = target: T3, CRE1/AHK4 (ARABIDOPSIS HISTIDINE KINASE 4) (Arabidopsis thaliana, UniProt Q9C5U0); experiment: competitive radioligand binding assay ([[…]-3H]tZ, [[…]-3H]iP) with E. coli cells expressing the receptor; assay type: cell-based
T3 construct: expressed in E. coli KMI001 (pIN-III-AHK4)
T3 sequence (Q9C5U0 whole entry): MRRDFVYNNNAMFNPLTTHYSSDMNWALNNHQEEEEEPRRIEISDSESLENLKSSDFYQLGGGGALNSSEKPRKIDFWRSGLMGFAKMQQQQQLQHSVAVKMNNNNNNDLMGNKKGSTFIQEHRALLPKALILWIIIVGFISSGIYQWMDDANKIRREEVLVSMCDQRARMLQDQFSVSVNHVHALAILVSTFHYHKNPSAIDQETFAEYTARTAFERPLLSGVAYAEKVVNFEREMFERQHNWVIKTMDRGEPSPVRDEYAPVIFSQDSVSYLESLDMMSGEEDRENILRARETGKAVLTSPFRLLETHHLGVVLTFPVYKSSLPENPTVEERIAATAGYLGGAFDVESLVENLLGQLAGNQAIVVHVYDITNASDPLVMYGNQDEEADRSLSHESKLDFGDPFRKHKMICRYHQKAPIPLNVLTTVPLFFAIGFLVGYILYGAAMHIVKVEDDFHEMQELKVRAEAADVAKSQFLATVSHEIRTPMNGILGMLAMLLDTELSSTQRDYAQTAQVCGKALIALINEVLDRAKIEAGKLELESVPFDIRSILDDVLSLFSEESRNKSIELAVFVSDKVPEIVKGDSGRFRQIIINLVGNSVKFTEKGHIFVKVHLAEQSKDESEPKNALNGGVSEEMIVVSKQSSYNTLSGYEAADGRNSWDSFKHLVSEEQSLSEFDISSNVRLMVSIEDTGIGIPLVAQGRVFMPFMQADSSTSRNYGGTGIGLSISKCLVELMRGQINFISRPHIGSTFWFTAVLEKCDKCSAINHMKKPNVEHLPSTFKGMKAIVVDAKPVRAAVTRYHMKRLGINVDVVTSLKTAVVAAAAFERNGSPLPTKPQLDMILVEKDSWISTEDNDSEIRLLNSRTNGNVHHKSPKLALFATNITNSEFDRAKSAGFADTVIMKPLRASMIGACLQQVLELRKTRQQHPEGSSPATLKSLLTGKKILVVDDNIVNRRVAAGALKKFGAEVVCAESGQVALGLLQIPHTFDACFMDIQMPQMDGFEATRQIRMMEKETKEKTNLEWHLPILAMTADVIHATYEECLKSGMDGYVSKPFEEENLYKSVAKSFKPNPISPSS

[4] = target: T3, CRE1/AHK4 (ARABIDOPSIS HISTIDINE KINASE 4); experiment: radioligand ([[…]-3H]tZ, […]) in competitive binding assay with E. coli cells
AHK3 [5] = target: T1, AHK3; experiment: as above

Row | SMILES | pKi (AHK3 [1]) | in vitro enzymatic reaction with AtCKX2 (kcat, Vmax/Km) [2] | pKi [3] | radioligand ([2-3H]tZ, 3 nM) in competitive binding assay with E. coli cells [4] | radioligand ([2-3H]tZ, 3 nM) in competitive binding assay with E. coli cells (AHK3 [5])
1 | CC(C)=CCNc1ncnc2c1ncn2CCNc1ccc([N+](=O)[O-])c2nonc12 [iP-NBD] | ~4.43 | AtCKX2 converted iP-NBD to the product with approx. six times lower turnover rate kcat compared to the parental iP | ~5.85 | – | –
2 | C/C(=C\CNc1ncnc2[nH]cnc12)CO [tZ] | – | – | – | iP-NBD competes for receptor binding with radiolabelled natural cytokinins iP and tZ | iP-NBD competes for receptor binding with radiolabelled natural cytokinins iP and tZ
